In patent US9526712B2, “Methods and agents for preventing and treating plasma cell dyscrasias” (NEW YORK UNIVERSITY, priority 2013, dated 2016):

How the values were obtained:
[1] = test system: KMS11 and ARP-1 MM cells expressing Gluc; assay: Gluc (Gaussia luciferase) secretion screen; format: cell-based, human; conditions: 5 μM compound, 24 hours, % RLU relative to DMSO control
Text: Using decreased protein processing in the secretory pathway as a measurable hallmark of ER stress, the screen described herein employs the naturally secreted Gaussia luciferase (Gluc) as a reporter that can be easily monitored through extracellular release of luciferase activity in real time. KMS11 and ARP-1 MM cells expressing Gluc were exposed to compounds in a natural products library in order to identify those which potentially induce ER stress as measured by inhibition of Gluc secretion. Both KMS11 and ARP-1 are human MM cells lines routinely used in the literature as in vitro models of MM. See, for example, Paterson et al., Br J Haematol, 2004, 124, 595-603; Pedranzini et al., Cancer Res, 2006, 66, 9714-9721; Stein et al., Clin Cancer Res, 2009, 15, 2808-2817; St-Germain J R. et al., Proc Natl Acad Sci USA, 2009, 106, 20127-20132; Gojo et al., Clin Cancer Res, 2002, 8, 3527-3538; Drucker et al., Carcinogenesis, 2006, 27, 197-204; Weiss et al., Br J Cancer, 2012, 107, 1844-1852; and Wang et al., Clin Cancer Res, 2006, 12, 49-56; the entire content of each of which is incorporated herein by reference. […] For screening, KMS11 and ARP1 cells were seeded in 96-well plates and treated with 5 μM of compounds from the Spectrum library (Microsource Discoveries) for 24 hours. Conditioned medium from each compound treatment was harvested to assay Gluc secretion alongside samples treated with DMSO alone, BTZ and TM as controls. Compounds of interest were considered to be those that inhibit Gluc secretion in both cell lines at least 30% after 24 hours treatment. See, for example, FIG. 1. […] For screening, […] Conditioned medium from each compound treatment was harvested to assay Gluc secretion alongside samples treated with DMSO alone, BTZ and TM as controls. Compounds of interest were considered to be those that inhibit Gluc secretion in both cell lines by at least 30% after 24 hours treatment. […]

[2] = test system: KMS11 MM cells; assay: Cellular proliferation by MTT assay (CellTiter 96 AQ); format: cell-based; conditions: Homo sapiens, KMS-11, 72 hr treatment
Text: (§1) The growth inhibitory activity of SAC was further characterized by MTT assay. These experiments assess cellular proliferation using the CellTiter 96 AQ Non-Radioactive Cell Proliferation Assay (Promega). This assay determines the number of living cells based upon the bioreduction of MTS tetrazolium compound into a colored formazan product. The quantity of product, as measured by absorbance on a microplate reader at 495 nm, is directly proportional to the number of living cells in culture. All cells were seeded in 96-well plates at a density of 5,000 cells per well. After overnight incubation, cells were treated with SAC at the indicated concentrations. After a 72 hr incubation period, proliferation was assessed. Cellular proliferation was expressed as a percentage with vehicle-treated cells set at 100%. See, for example, FIG. 2.
(§2) The cell proliferation assay performed to generate the results presented in FIG. 5, for example, was performed as described elsewhere herein. Briefly, all cells were seeded in 96-well plates at a density of 5000 cells per well. After overnight incubation, cells were treated with a candidate compound at concentrations ranging from 100 nM to 10000 nM. After a 72 hr incubation period, proliferation was assessed using a tetrazolium dye reduction assay (CellTiter 96 AQueous Non-Radioactive Cell Proliferation Assay; Promega, Madison, Wis.). Absorbance was recorded on a microplate reader at 490 nm. Cellular proliferation was expressed as a percentage with vehicle-treated cells set at 100%. Each assay was performed in triplicate with mean values reported.

[3] = test system: ARP1 MM cells; assay: as above; format: cell-based; conditions: Homo sapiens, ARP-1, 72 hr treatment
Text: as §1, §2

[4] = test system: KMS11 and ARP1 multiple myeloma cells; assay: XBP1 cleavage assay (semi-quantitative RT-PCR); format: cell-based, human; conditions: 0.5 uM SAC, 24 hours
Procedure: The XBP1 cleavage assay used to generate the results presented in FIG. 6 was performed as follows. KMS11 and ARP1 cells were treated with 0.5 uM SAC or 10 ng/ml tunicamycin (TM, positive control) for 24 hours. Total RNA was isolated from lysed cells with the RNeasy Mini kit (Qiagen, Germantown, Md., USA). XBP1 splicing was assessed by semi-quantitative RT-PCR as described previously (Lin, et al. Science, 2007. 318(5852):944-9; Manga et al. Pigment Cell Melanoma Res, 2010. 23(5):627-34; the entire content of each of which is incorporated herein by reference). cDNA was produced from total RNA preps using ImProm-II Reverse Transcription System (Promega). Primers spanning the fragment of XBP1 containing the intron targeted by Irela were used: 5′-[…]-3′ and 5′-[…]-3′. The thermal PCR cycling conditions are as follows: 95° C. for 5 min, 95° C. for 1 min, 58° C. for 30 s, 72° C. for 30 s, and 72° C. for 5 min with 35 cycles of amplification. In order to properly distinguish the PCR products, samples were digested with Pst1 (New England Biolabs, Ipswich, Mass., USA) that only cuts the unspliced cDNA (Calfon et al. Nature, 2002. 415(6867):92-6). Products were then separated on a 2.0% agarose/1× TAE gel and visualized by ethidium bromide.

[5] = test system: KMS11 MM cells; assay: Western blotting of UPR markers and apoptotic marker; format: cell-based, human; conditions: western blot
Text: In order to investigate the mechanism of SAC mediated ER stress response, the present inventors evaluated key unfolded protein response (UPR) markers including phospho-eIF2α and BIP as well as the apoptotic marker cleaved PARP by standard western blotting techniques. […] See also FIG. 3.

[6] = test system: bone marrow (BM) mononuclear cells isolated from a patient with smoldering multiple myeloma (SMM); assay: Cellular proliferation of SMM bone marrow mononuclear cells; format: cell-based, human; conditions: 100 nM to 10000 nM, 72 hr
Text: To explore the effects of SAC in the context of SMM, the present inventors tested the activity of SAC in bone marrow (BM) mononuclear cells isolated from a patient with smoldering multiple myeloma (SMM). To isolate the BM mononuclear cells, heparinized BM samples were freshly obtained from a SMM patient, diluted in PBS, and subjected to Ficoll-Hypaque density separation. Mononuclear cells are carefully collected from the PBS-Ficoll interface, washed in PBS and pelleted. The cell proliferation assay was performed by seeding the SMM BM mononuclear cells in 96-well plates at a density of 5000 cells per well. After overnight incubation, cells were treated with SAC at concentrations ranging from 100 nM to 10000 nM. After a 72 hr incubation period, proliferation was assessed using a tetrazolium dye reduction assay (CellTiter 96 AQueous Non-Radioactive Cell Proliferation Assay; Promega, Madison, Wis.). Absorbance was recorded on a microplate reader at 490 nm. Cellular proliferation was expressed as a percentage with vehicle-treated cells set at 100%. Each assay was performed in triplicate with mean values reported.

[7] = test system: panel of 60 different cancer cell lines; assay: NCI 60 cell screen growth inhibitory activity; format: cell-based; conditions: NCI 60 cell panel
Text: Although SAC has been used to treat other types of cancer including colon, lung, breast and liver, the present inventors are unaware of any studies pertaining to its efficacy in MM, MGUS or SMM. One major difference between these types of cancers relates to the fact that those that have been assessed with regard to SAC' s efficacy are solid tumors, whereas MM is a blood cancer. Further to this point, the present inventors submitted SAC for analysis in the Developmental Therapeutics Program at the NCI/NIH. The growth inhibitory activity of SAC was assessed in the NCI 60 cell screen, which is a panel of 60 different cancer cell lines. […] SAC anti-cancer activity must, therefore, be determined empirically for each cancer, due to the lack of predictability of response. Therefore, a compound's ability to act as a therapeutic agent in one cancer, e.g. colon, is not necessarily predictive of its properties with respect to a different cancer, even a related cancer. It is also noteworthy that no MM cell lines are represented in the 60 cell panel. This underscores the fact that, in advance of the present findings, MM cell lines were not thought to be suitable targets for examining SAC anti-cancer activity.

Structure (SMILES)	inhibition of Gluc secretion [1]	inhibition of Gluc secretion ([1]; listed as alliicin)	IC50 [2]	IC50 [3]	splicing of XBP1 [4]	BIP expression [5]	cleavage of PARP [5]	phosphorylation of eIF2-α [5]	inhibition of cellular proliferation [6]	mean growth percent across all 60 cell lines [7]
C=CC[S+]([O-])C[C@H](N)C(=O)O (stereo partly shown) [alliin, Allylcysteine sulfoxide]	not found to be effective at inhibiting GLUC secretion	did not exhibit an ability to target ER stress mediated pathways	–	–	–	–	–	–	–	–
CCCSC[C@H](N)C(=O)O [SPC, S-propyl cysteine, reference compound]	–	–	> 10 µM	> 10 µM	–	–	–	–	–	–
C=CCSC[C@H](N)C(=O)O [SAC, S-allylcysteine]	inhibited Gluc secretion as effectively as 5 μM BTZ	–	1.5 µM	1.9 µM	enhanced splicing of the UPR transcription factor XBP1	increased BIP expression	cleavage of PARP	enhanced phosphorylation of eIF2-α	dose-dependent inhibition of cellular proliferation	106
